Data as given in article PMC9305750 (Chemmedchem, 2022).
Several values for one entry are separate records, joined by “and”; a condition that tells them apart may be missing. Equal values may be shown once. Entries after “also recorded” stand apart in the source; their conditions may differ. Read-outs that look alike come from different tables or passages of the source.

How the values were obtained:
Nurr1 LBD = Nurr1 LBD (Homo sapiens, UniProt P43354); experiment: HTRF assay of Nurr1 LBD homodimerization; type: biochemical
[1] = molecular target: T1, human Nurr1 ligand binding domain (LBD) fused to the Gal4 DNA binding domain (Homo sapiens, UniProt P43354); experiment: Hybrid Gal4-Nurr1 reporter gene assay in transiently transfected HEK293T cells; type: cell-based; details: for fold act. (maximum Nurr1 activation vs. DMSO (0.1 %)): purified compounds, mean±S.E.M., n≥3
[2] = molecular target: T1, human Nurr1 ligand binding domain (LBD) fused to the Gal4 DNA binding domain; details: for comparison; cited from earlier work

T1 sequence (P43354 360-595 limits assumed): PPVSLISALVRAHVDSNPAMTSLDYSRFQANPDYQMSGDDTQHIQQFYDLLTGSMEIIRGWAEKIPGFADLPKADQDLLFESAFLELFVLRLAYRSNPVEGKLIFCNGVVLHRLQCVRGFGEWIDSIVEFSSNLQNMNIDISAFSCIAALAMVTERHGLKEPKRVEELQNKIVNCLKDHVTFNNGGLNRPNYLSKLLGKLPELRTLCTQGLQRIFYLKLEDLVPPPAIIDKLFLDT
Sequence of Nurr1 LBD (P43354 360-595 limits assumed): as above

Row | SMILES | effect on Nurr1 LBD homodimerization (HTRF) (Nurr1 LBD) | EC50 [1] [µM] | fold act. (maximum Nurr1 activation vs. DMSO (0.1 %)) [1] [fold] | fold act. (maximum Nurr1 activation vs. DMSO (0.1 %)) [2]
1 | Clc1ccc(-c2ccc(CNc3ccnc4cc(Cl)ccc34)o2)cc1 [3 j, 7‐Chloro‐N‐((5‐(4‐chlorophenyl)furan‐2‐yl)methyl)quinolin‐4‐amine] | diminished dimerization; also recorded: diminished Nurr1 homodimerization | 8 ± 1 | 2.5±0.1 | –
2 | CCN(CC)Cc1cc(Nc2ccnc3cc(Cl)ccc23)ccc1O [AQ, amodiaquine] | – | – | – | 3.6 fold and 3.6±0.1 fold
3 | CCN(CC)CCCC(C)Nc1ccnc2cc(Cl)ccc12 (stereo not shown) [CQ, chloroquine] | – | – | – | 2.0±0.1 fold
4 | Nc1ccnc2cc(Cl)ccc12 [compound 3, 4‐Amino‐7‐chloroquinoline] | – | – | – | 2.5 fold and 2.5±0.4 fold
5 | O=C(Nc1ccnc2cc(Cl)ccc12)c1ccc(-c2ccc(Cl)cc2)o1 [compound 4, 5‐(4‐Chlorophenyl)‐N‐(7‐chloroquinolin‐4‐yl)furan‐2‐carboxamide] | – | 3 ± 0.1 | 2.0±0.1 | –
6 | Clc1ccc(-c2ccc(CN3CCOc4cc(Cl)ccc43)o2)cc1 [compound 5, 7‐Chloro‐4‐((5‐(4‐chlorophenyl)furan‐2‐yl)methyl)‐3,4‐dihydro‐2H‐benzo[b][1,4]oxazine] | – | 47 ± 13 | 2.0±0.2 | –
